System: panel of cancer cell lines
Test: Cell viability (CellTiter-Glo) dose-response across cancer cell line panel;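 further: after 72 h compound incubation with CellTiter-Glo ATP readout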
Assay type: cell-based, human
Conditions: Homo sapiens
Source text: Next, we explored the effect of CSN5 inhibition on the viability of cancer cells. To obtain a comprehensive picture, we generated dose–response curves with a CSN5 inhibitor across more than 500 cancer cell lines in a previously described standardized setting[47] (Supplementary Data 1).
A standardized CellTiter-Glo Assay (Promega #G7570) based on the quantification of ATP was applied according to the manufacturer's protocol to measure the amount of viable cells in culture. In brief, cells were seeded into 384-well plates at optimal density for each cell line. After 4 h, compounds were added at different concentrations in growth medium and incubated for another 72 h in a humidifying chamber at 37 °C and 5% CO2. […] EC50 values were calculated from the plot of percentage of inhibition versus inhibitor concentration using the nonlinear regression analysis software Origin 7.5SR6 (OriginLab Corp.).

Compound: COCc1ccccc1NCc1ccc([C@H]2[C@@H](O)CCCc3cncn32)c(-c2ccccc2Cl)c1 [CSN5i-2, (5S,6S)-5-(2′-chloro-5-(((2-(methoxymethyl)phenyl)amino)methyl)-[1,1′-biphenyl]-2-yl)-6,7,8,9-tetrahydro-5H-imidazo[1,5-a]azepin-6-ol]
- EC50 (MOG-G-CCM): 3480 nM
- EC50 (MOLM16, MOLM-16): 133 nM
- EC50 (MOLM-13, MOLM-13): 262 nM
- EC50 (MOLT-13, MOLT-13): 217 nM
- EC50 (MOLT-16, MOLT-16): 341 nM
- EC50 (MSTO-211H): 1350 nM
- EC50 (MV4-11, MV-4-11): 454 nM
- EC50 (Malme-3M): 2060 nM
- EC50 (MeWo): 472 nM
- EC50 (Mono-Mac-1, MONO-MAC-1): 747 nM
- EC50 (NALM-6, NALM-6): 209 nM
- EC50 (NB1, NB-1): 531 nM
- EC50 (NB-4, NB-4): 212 nM
- EC50 (NCI-H23, NCI-H23): 347 nM
- EC50 (NCI-H28, NCI-H28): 4700 nM
- EC50 (NCI-H82, NCI-H82): 5190 nM
- EC50 (NCI-H146, NCI-H146): 5250 nM
- EC50 (NCI-H211, NCI-H211): 1730 nM
- EC50 (NCI-H322, NCI-H322): 2540 nM
- EC50 (NCI-H441, NCI-H441): 3410 nM
- EC50 (NCI-H460, NCI-H460): 8610 nM
- EC50 (NCI-H520, NCI-H520): 10800 nM
- EC50 (NCI-H647, NCI-H647): > 30000 nM
- EC50 (NCI-H650, NCI-H650): > 30000 nM
- EC50 (NCI-H661, NCI-H661): 457 nM
- EC50 (NCI-H747, NCI-H747): 733 nM
- EC50 (NCI-H810, NCI-H810): 754 nM
- EC50 (NCI-H838, NCI-H838): 1000 nM
- EC50 (NCI-H841, NCI-H841): 1040 nM
- EC50 (NCI-H1048, NCI-H1048): 1920 nM
- EC50 (NCI-H1155, NCI-H1155): 653 nM
- EC50 (NCI-H1299, NCI-H1299): 1520 nM
- EC50 (NCI-H1339, NCI-H1339): 1130 nM
- EC50 (NCI-H1341): 2010 nM
- EC50 (NCI-H1355, NCI-H1355): 1280 nM
- EC50 (NCI-H1373, NCI-H1373): 9300 nM
- EC50 (NCI-H1437, NCI-H1437): 17700 nM
- EC50 (NCI-H1568, NCI-H1568): 434 nM
- EC50 (NCI-H1650, NCI-H1650): 1820 nM
- EC50 (NCI-H1666, NCI-H1666): 11900 nM
- EC50 (NCI-H1703, NCI-H1703): 1640 nM
- EC50 (NCI-H1755, NCI-H1755): 967 nM
- EC50 (NCI-H1792, NCI-H1792): 2270 nM
- EC50 (NCI-H1915, NCI-H1915): 1270 nM
- EC50 (NCI-H1975, NCI-H1975): 2830 nM
- EC50 (NCI-H2023, NCI-H2023): 518 nM
- EC50 (NCI-H2030, NCI-H2030): 559 nM
- EC50 (NCI-H2073, NCI-H2073): 4450 nM
- EC50 (NCI-H2087, NCI-H2087): 1120 nM
- EC50 (NCI-H2110, NCI-H2110): 1760 nM
- EC50 (NCI-H2122, NCI-H2122): 893 nM
- EC50 (NCI-H2126, NCI-H2126): > 30000 nM
- EC50 (NCI-H2170, NCI-H2170): 17500 nM
- EC50 (NCI-H2171, NCI-H2171): 1340 nM
- EC50 (NCI-H2172, NCI-H2172): 4890 nM
- EC50 (NCI-H2228, NCI-H2228): 4930 nM
- EC50 (NCI-H2286, NCI-H2286): 364 nM
- EC50 (NCI-H2444, NCI-H2444): 322 nM
- EC50 (NCI-H2452, NCI-H2452): 1940 nM
- EC50 (NCI-H3255, NCI-H3255): > 30000 nM
- EC50 (NCI-N87, NCI-N87): 106 nM
- EC50 (NO36): 2000 nM
- EC50 (NOMO-1, NOMO-1): 1640 nM
- EC50 (NUGC-3, NUGC-3): 6500 nM
- EC50 (OCI-AML-3, OCI-AML3): 1180 nM
- EC50 (OCI-AML-5, OCI-AML5): 677 nM
- EC50 (OCI-Ly3, OCI-LY3): 404 nM
- EC50 (ONCO-DG-1, ONCO-DG-1): 1110 nM
- EC50 (OUMS-23, OUMS-23): 747 nM
- EC50 (OV56, OV56): 401 nM
- EC50 (OVCAR-3, NIH:OVCAR-3): 523 nM
- EC50 (OVCAR-4, OVCAR-4): 1540 nM
- EC50 (OVISE): 29100 nM
- EC50 (P3HR-1, P3HR-1): 560 nM
- EC50 (P12-Ichikawa): 279 nM
- EC50 (P31-FUJ, P31/FUJ): 690 nM
- EC50 (PANC-1, PANC-1): 477 nM
- EC50 (PANC-03-27, Panc 03.27): 679 nM
- EC50 (PC-3, PC-3): 5890 nM
- EC50 (PC-14, PC-14): 8990 nM
- EC50 (PE/CA-PJ49): 970 nM
- EC50 (PF-382, PF-382): 262 nM
- EC50 (PK-1, PK-1): 2710 nM
- EC50 (PK-45H): 1860 nM
- EC50 (PK-59, PK-59): 1760 nM
- EC50 (PL45, PL45): 722 nM
- EC50 (PL-21, PL-21): 684 nM
- EC50 (PLC-PRF-5, PLC/PRF/5): 6990 nM
- EC50 (PSN1, PSN1): 1680 nM
- EC50 (PaTu 8902, PA-TU-8902): 2330 nM
- EC50 (PaTu 8988t, PA-TU-8988T): 5870 nM
- EC50 (Panc 04.03, Panc 04.03): 6710 nM
- EC50 (Panc1005, Panc 10.05): 308 nM
- EC50 (QGP-1, QGP-1): > 30000 nM
- EC50 (RCM-1, RCM-1): 2700 nM
- EC50 (RD): 1830 nM
- EC50 (RD-ES): 839 nM
- EC50 (RERF-LC-AI): 581 nM
- EC50 (RERF-LC-MS): 1560 nM
- EC50 (RKN): 1130 nM
- EC50 (RKO): 2720 nM
- EC50 (RMUG-S): > 30000 nM
- EC50 (RPMI 8402, RPMI-8402): 633 nM
- EC50 (RPMI-7951, RPMI-7951): 16000 nM
- EC50 (RT-112, RT-112): 5730 nM
- EC50 (RVH-421, RVH-421): 2430 nM
- EC50 (Rh41, RH-41): 952 nM
- EC50 (SCC-25, SCC-25): 9930 nM
- EC50 (SCaBER): 3550 nM
- EC50 (SEM): 728 nM
- EC50 (SF8657): > 30000 nM
- EC50 (SF-268, SF-268): 1880 nM
- EC50 (SH-4, SH-4): 426 nM
- EC50 (SH-10-TC): 1390 nM
- EC50 (SH-SY5Y): 3480 nM
- EC50 (SJRH30, SJRH30): 1930 nM
- EC50 (SK-CO-1, SK-CO-1): 1220 nM
- EC50 (SK-ES1, SK-ES-1): 543 nM
- EC50 (SK-HEP1, SK-HEP-1): 979 nM
- EC50 (SK-LU-1, SK-LU-1): 3370 nM
- EC50 (SK-MEL3, SK-MEL-3): 20000 nM
- EC50 (SK-MEL-2, SK-MEL-2): 1940 nM
- EC50 (SK-MEL-5, SK-MEL-5): 1590 nM
- EC50 (SK-MEL-28, SK-MEL-28): 419 nM
- EC50 (SK-MEL-30, SK-MEL-30): 2280 nM
- EC50 (SK-MEL-31): 5350 nM
- EC50 (SK-N-SH): 2610 nM
- EC50 (SK-OV-3, SK-OV-3): > 30000 nM
- EC50 (SKM-1, SKM-1): 487 nM
- EC50 (SKNBE2, SK-N-BE(2)): 455 nM
- EC50 (SNB-19, SNB-19): 2200 nM
- EC50 (SNG-M): 370 nM
- EC50 (SNU878, SNU-878): 6720 nM
- EC50 (SNU-8): 601 nM
- EC50 (SNU-16, SNU-16): 2080 nM
- EC50 (SNU-61): 1990 nM
- EC50 (SNU-81): 733 nM
- EC50 (SNU-175): 806 nM
- EC50 (SNU-213): 4010 nM
- EC50 (SNU-349): 3550 nM
- EC50 (SNU-387, SNU-387): 666 nM
- EC50 (SNU-398, SNU-398): 277 nM
- EC50 (SNU-410): 21100 nM
- EC50 (SNU-423, SNU-423): 1310 nM

Reference: paper PMC5078989, “Targeted inhibition of the COP9 signalosome for treatment of cancer” (Nature Communications, 2016)
